In US9409866B2, “Pyridine-2-amides useful as CB2 agonists” (Hoffmann-La Roche Inc., priority 2012, dated 2016) one finds EC50 data, which are given here for 21 compounds.

Bounds are passed on as bounds.

Assay [1] addresses human CB2 receptors (Homo sapiens (Human), UniProt P34972). The assay is described as follows: functional cAMP assay, CHO cells expressing human CB2. The format is cell-based. Particulars: read-out: Human CB2 EC50. The gist of the method: (§1)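 Compound exposure lasted 30 min at 30 °C in IBMX (1 mM)-containing Krebs Ringer bicarbonate buffer, applied to human CB1- or CB2-expressing CHO cells. Lysates were read by time-resolved FRET cAMP detection, converted via cAMP standard curve (10 μM–0.13 nM), and EC50 values calculated.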
On the technique in general: Changes in cAMP serve as a functional read-out for many G protein-coupled receptors.

In assay [2] the target is human CB1 receptors (Homo sapiens (Human), UniProt P21554). The assay is described as follows: functional cAMP assay, CHO cells expressing human CB1. The format is cell-based. Particulars: functional cAMP assay, CHO cells expressing human CB1; read-out: Human CB1 EC50. The gist of the method: as §1
human CB1 receptors, sequence (P21554 whole entry): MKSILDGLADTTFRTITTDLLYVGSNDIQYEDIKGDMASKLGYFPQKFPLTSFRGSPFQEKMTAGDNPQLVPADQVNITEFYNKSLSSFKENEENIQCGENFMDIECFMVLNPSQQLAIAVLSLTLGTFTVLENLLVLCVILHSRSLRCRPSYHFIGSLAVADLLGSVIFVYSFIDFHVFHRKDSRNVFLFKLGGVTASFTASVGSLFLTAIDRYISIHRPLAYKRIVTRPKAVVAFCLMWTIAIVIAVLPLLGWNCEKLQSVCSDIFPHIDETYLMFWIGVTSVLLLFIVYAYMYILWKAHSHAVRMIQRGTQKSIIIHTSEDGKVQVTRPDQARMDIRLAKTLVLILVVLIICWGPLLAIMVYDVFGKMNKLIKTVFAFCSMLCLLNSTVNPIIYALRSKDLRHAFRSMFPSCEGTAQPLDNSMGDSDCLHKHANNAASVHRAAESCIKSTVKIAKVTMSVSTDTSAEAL

human CB2 receptors, sequence (P34972 whole entry): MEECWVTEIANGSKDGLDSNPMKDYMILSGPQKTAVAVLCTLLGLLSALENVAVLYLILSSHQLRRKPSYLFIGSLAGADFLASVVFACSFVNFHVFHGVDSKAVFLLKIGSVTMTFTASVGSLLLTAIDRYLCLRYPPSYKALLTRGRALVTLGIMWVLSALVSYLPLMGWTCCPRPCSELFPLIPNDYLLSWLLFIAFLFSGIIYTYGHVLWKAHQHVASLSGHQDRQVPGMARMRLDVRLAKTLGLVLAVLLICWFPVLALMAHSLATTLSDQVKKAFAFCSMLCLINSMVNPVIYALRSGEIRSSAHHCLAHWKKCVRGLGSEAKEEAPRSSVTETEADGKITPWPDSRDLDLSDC

A word on the EC50: it is the midpoint of the concentration-response curve. In the case of `CC(C)(C)C(NC(=O)c1cc(OCC(F)(F)F)c(C2CC2)cn1)c1nccs1` (stereo not drawn) [Example 50, 5-Cyclopropyl-4-(2,2,2-trifluoro-ethoxy)-pyridine-2-carboxylic acid (2,2-dimethyl-1-thiazol-2-yl-propyl)-amide], the 50% effective concentration (EC50) in assay [1] was 5.8 nM; in assay [2], over 10000 nM.
In the same order, the values of `O=C(NC(c1ccccn1)C(F)(F)F)c1cc(OCC(F)(F)F)c(C2CC2)cn1` (stereo not drawn) [Example 51, 5-Cyclopropyl-4-(2,2,2-trifluoro-ethoxy)-pyridine-2-carboxylic acid (2,2,2-trifluoro-1-pyridin-2-yl-ethyl)-amide] are 12.2 nM and over 10000 nM.
The like results for `CC(C)C[C@H](NC(=O)c1cc(OCC(F)(F)F)c(C2CC2)cn1)C(N)=O` [Example 52, 5-Cyclopropyl-4-(2,2,2-trifluoro-ethoxy)-pyridine-2-carboxylic acid ((S)-1-carbamoyl-3-methyl-butyl)-amide] were, in that order, 77.8 nM and over 10000 nM.
Take `O=C(NC1(CO)CC1)c1cc(OCC2CC2)c(N2CC(F)(F)C2)cn1` [Example 53, 4-Cyclopropylmethoxy-5-(3,3-difluoro-azetidin-1-yl)-pyridine-2-carboxylic acid (1-hydroxymethyl-cyclopropyl)-amide]: the EC50 in assay [1] is 72.6 nM; in assay [2] it was over 10000 nM.
With `CCC(CC)(CO)NC(=O)c1cc(OCC(F)(F)F)c(C2CC2)cn1` [Example 54, 5-Cyclopropyl-4-(2,2,2-trifluoro-ethoxy)-pyridine-2-carboxylic acid (1-ethyl-1-hydroxymethyl-propyl)-amide], the EC50 in assay [1] was 18.5 nM; in assay [2] it was over 10000 nM.
The like results for `O=C(NC1(CO)CCCCC1)c1cc(OCC(F)(F)F)c(C2CC2)cn1` [Example 55, 5-Cyclopropyl-4-(2,2,2-trifluoro-ethoxy)-pyridine-2-carboxylic acid (1-hydroxymethyl-cyclohexyl)-amide] were, in that order, 15.7 nM and over 10000 nM.
For the compound `O=C(NCC1(O)CCCC1)c1cc(OCC2CC2)c(C2CC2)cn1` [Example 56, 5-Cyclopropyl-4-cyclopropylmethoxy-pyridine-2-carboxylic acid (1-hydroxy-cyclopentylmethyl)-amide], the 50% effective concentration (EC50) in assay [1] is 18.1 nM; in assay [2], over 10000 nM.
The like results for `O=C(NCC1(O)CCCCC1)c1cc(OCC2CC2)c(C2CC2)cn1` [Example 57, 5-Cyclopropyl-4-cyclopropylmethoxy-pyridine-2-carboxylic acid (1-hydroxy-cyclohexylmethyl)-amide] were, in that order, 13 nM and over 10000 nM.
The like results for `CCC(O)CNC(=O)c1cc(OCC2CC2)c(C2CC2)cn1` (stereo not drawn) [Example 58, 5-Cyclopropyl-4-cyclopropylmethoxy-pyridine-2-carboxylic acid (2-hydroxy-butyl)-amide] were, in that order, 63.7 nM and over 10000 nM.
In the same order, the values of `CC(C)(O)CNC(=O)c1cc(OCC2CC2)c(C2CC2)cn1` [Example 59, 5-Cyclopropyl-4-cyclopropylmethoxy-pyridine-2-carboxylic acid (2-hydroxy-2-methyl-propyl)-amide] are 81.6 nM and over 10000 nM.
Turning to `CC(C)(O)CNC(=O)c1cc(OCC(F)(F)F)c(C2CC2)cn1` [Example 60, 5-Cyclopropyl-4-(2,2,2-trifluoro-ethoxy)-pyridine-2-carboxylic acid (2-hydroxy-2-methyl-propyl)-amide], the EC50 in assay [1] was 481 nM; in assay [2], over 10000 nM.
Turning to `Cc1nc(C(C)(NC(=O)c2cc(OCC(F)(F)F)c(Cl)cn2)C2CC2)no1` (stereo not drawn) [Example 62, 5-Chloro-4-(2,2,2-trifluoro-ethoxy)-pyridine-2-carboxylic acid [1-cyclopropyl-1-(5-methyl-[1,2,4]oxadiazol-3-yl)-ethyl]-amide], the EC50 in assay [1] is 8.9 nM; in assay [2] it was over 10000 nM.
As to `C[C@@H](Oc1cc(C(=O)NC2(CC(N)=O)COC2)ncc1C1CC1)C(F)(F)F` [Example 63, 5-Cyclopropyl-4-((R)-2,2,2-trifluoro-1-methyl-ethoxy)-pyridine-2-carboxylic acid (3-carbamoylmethyl-oxetan-3-yl)-amide], the figures for the 50% effective concentration (EC50) in assay [1] and in assay [2] were 283 nM and over 10000 nM, respectively.
In the same order, the values of `C[C@H](Oc1cc(C(=O)NC2(CC(N)=O)COC2)ncc1C1CC1)C(F)(F)F` [Example 64, 5-Cyclopropyl-4-((S)-2,2,2-trifluoro-1-methyl-ethoxy)-pyridine-2-carboxylic acid (3-carbamoylmethyl-oxetan-3-yl)-amide] are 515 nM and over 10000 nM.
The like results for `CC(C)(C)NC(=O)c1cc(OCC(F)(F)F)c(C2CC2)cn1` [Example 70, 5-Cyclopropyl-4-(2,2,2-trifluoro-ethoxy)-pyridine-2-carboxylic acid tert-butylamide] were, in that order, 10.4 nM and over 10000 nM.
On to `O=C(c1cc(OCC(F)(F)F)c(C2CC2)cn1)N1CCCC12COC2` [Example 71, [5-Cyclopropyl-4-(2,2,2-trifluoro-ethoxy)-pyridin-2-yl]-(2-oxa-5-aza-spiro[3.4]oct-5-yl)-methanone], for which the half-maximal effective concentration (EC50) in assay [1] is 586 nM; in assay [2], over 10000 nM.
As for `O=C(c1cc(OCC(F)(F)F)c(C2CC2)cn1)N1CC(F)(F)C1` [Example 76, [5-Cyclopropyl-4-(2,2,2-trifluoro-ethoxy)-pyridin-2-yl]-(3,3-difluoro-azetidin-1-yl)-methanone], the EC50 is 167 nM in assay [1] and over 10000 nM in assay [2].
In the same order, the values of `CCC(C)(NC(=O)c1cc(OCC(F)(F)F)c(C2CC2)cn1)C(N)=O` (stereo not drawn) [Example 77, 5-Cyclopropyl-4-(2,2,2-trifluoro-ethoxy)-pyridine-2-carboxylic acid (1-carbamoyl-1-methyl-propyl)-amide] are 137 nM and over 10000 nM.
On to `Cc1nc(C(C)(NC(=O)c2cc(OCC(F)(F)F)c(N3CC(F)(F)C3)cn2)C2CC2)no1` (stereo not drawn) [Example 78, 5-(3,3-Difluoro-azetidin-1-yl)-4-(2,2,2-trifluoro-ethoxy)-pyridine-2-carboxylic acid [1-cyclopropyl-1-(5-methyl-[1,2,4]oxadiazol-3-yl)-ethyl]-amide], for which the EC50 was 6.1 nM in assay [1] and over 10000 nM in assay [2].
In the same order, the values of `Cc1nc(C(C)(NC(=O)c2cc(OCC(F)(F)F)c(N3CCC(F)(F)C3)cn2)C2CC2)no1` (stereo not drawn) [Example 79, 5-(3,3-Difluoro-pyrrolidin-1-yl)-4-(2,2,2-trifluoro-ethoxy)-pyridine-2-carboxylic acid [1-cyclopropyl-1-(5-methyl-[1,2,4]oxadiazol-3-yl)-ethyl]-amide] are 6.5 nM and 190 nM.
For `Cc1nc(C(C)(CS(C)(=O)=O)NC(=O)c2cc(OCC(F)(F)F)c(Cl)cn2)no1` (stereo not drawn) [Example 80, 5-Chloro-4-(2,2,2-trifluoro-ethoxy)-pyridine-2-carboxylic acid [2-methanesulfonyl-1-methyl-1-(5-methyl-[1,2,4]oxadiazol-3-yl)-ethyl]-amide], the EC50 in assay [1] was 969 nM; in assay [2], over 10000 nM.
